# Assays:
# [1] = test system: bladder specimen of high-week-old male rats; assay: Test Example 3: isometric contraction test of bladder specimen from high-week-old male rats after oral dosing; format: in vivo; details: 22-week-old male rats, oral once a day 2 weeks, 10 mg/kg, compared with Group C (dutasteride 0.3 mg/kg)
# Excerpt: High-week-old male rats (22-week-old; Charles River Laboratories Japan, Inc.) were examined and evaluated for the relationship between the test substances and the bladder and urethra contraction reaction. Since the rats are high-week-old, the rats are a model in which the prostate is predicted to be enlarged.
# A test substance was orally administered to the high-week-old male rats repeatedly at a frequency of once a day over two (2) weeks, and then, from each rat, a bladder specimen was extracted. The bladder specimen was suspended at a resting tension of about 9.8 mN in a constant-temperature Magnus tube (37° C.) filled with a physiological salt solution aerated with 95% 02-5% CO2 gas and was subjected to an isometric contraction test by applying a square-wave electrical field stimulation (EFS, Amplitude; 0.3 ms, Frequency; 1, 2, 5, 10, 20 Hz, Duration; 5 s); or Carbachol (CCH, 100 nmol/L to 100 μmol/L) and KCl (40, 80 mmol/L).
# Solvent group (control group): 0.5 v/v % Polysorbate 80 solution, 10 mL/kg (n=6) • Group A: Compound A, 10 mg/kg (n=6) • Group C: Compound C (dutasteride), 0.3 mg/kg (n=6)
# [2] = test system: rats having the urination disorder associated with diabetes; assay: Test Example 4: urination disorder model associated with streptozocin-induced diabetes (tissue weights, blood glucose, cystometry, nomogram); format: in vivo; details: for Bladder weight / Blood glucose level / Kidney weight / Prostate weight, dorsolateral prostate / Prostate weight, ventral prostate / Prostate weight, whole / Seminal vesicle weight: 4 weeks; for Bladder weight / Blood glucose level / Kidney weight / Prostate weight, dorsolateral prostate / Prostate weight, ventral prostate / Prostate weight, whole / Seminal vesicle weight / Body weight: average ± SD; for Dorsolateral prostate atrophy rate / Seminal vesicle atrophy rate / Ventral prostate atrophy rate / Whole prostate atrophy rate: relative to solvent group; for Body weight: model with induced diabetes (STZ), male rats
# Procedure: As described below, as a urination disorder model, a urination disorder model associated with diabetes was prepared to evaluate the urination disorder. This model has no benign prostatic hyperplasia and is a model of a urination disorder associated with neuropathy and smooth muscle contraction disorder.
# The body weights of rats (male, Crl:CD(SD), 5-week-old; Charles River Laboratories Japan, Inc.) were measured. After the rats were fasted overnight, the blood was collected from the caudal vein to measure the fasting blood glucose. On the basis of the body weight and the fasting blood glucose level, the rats were grouped or divided into two (2) groups by randomized, multivariable block allocation. The day after the rats were grouped, a first group received intraperitoneal administration of a citrate buffer (pH 4.5) (10 mL/kg) having a concentration of 0.1 mmol/L, and a second group received intraperitoneal administration of streptozocin (STZ; Sigma-Aldrich) (50 mg/kg). Streptozocin (STZ) was administered in the form of a solution of streptozocin having a concentration of 5 mg/mL in the citrate buffer.
# About one (1) week after streptozocin (STZ) was administered, the body weight and the fasting blood glucose were measured. In the streptozocin (STZ) administration group (the second group), individuals having a fasting blood glucose level of not less than 300 mg/dL were used as animals with induced diabetes. These animals with induced diabetes are a model having no abnormality of the prostate (having no benign prostatic hyperplasia). On the basis of the body weight and the fasting blood glucose level, the animals (models) with induced diabetes were grouped or divided into three (3) groups by randomized, multivariable block allocation.
# To the three model groups with induced diabetes, a 0.5 v/v % Polysorbate 80 solution (0.5% P) (10 mL/kg), the compound A (3 mg/kg), and the compound A (10 mg/kg) were orally administered, respectively, wherein the administration schedule in all groups was a frequency of once a day, only on weekdays, over four (4) weeks. Moreover, to the above-mentioned first group, a 0.5 v/v % Polysorbate 80 solution (0.5% P) (10 mL/kg) was orally administered in the same administration schedule (normal group). On the last day of administration, a cannula was inserted into and secured to the dome of the bladder under isoflurane anesthesia, and cystometry (Cystometogram, CMG) was conducted in the order of under awake condition and under urethane anesthesia to measure the intravesical pressure, the voided volume, and the residual urine volume. After the completion of the measurement, the blood was collected under deep isoflurane anesthesia, and then the prostate (ventral prostate, dorsolateral prostate), the seminal vesicle, the bladder, and the kidney were extracted and were each weighed. Moreover, the blood glucose level in the collected blood was measured.
# The test substances and the dosage in the test system (rats having the urination disorder associated with diabetes) are as follows. • Normal group: citrate buffer 10 mL/kg (intraperitoneal administration), 0.5% P 10 mL/kg (oral administration) (n=10) • Solvent group (control group): STZ 50 mg/kg (intraperitoneal administration), 0.5% P 10 mL/kg (oral administration) (n=10) • Group A3: STZ 50 mg/kg (intraperitoneal administration), Compound A 3 mg/kg (oral administration) (n=10) • Group A10: STZ 50 mg/kg (intraperitoneal administration), Compound A 10 mg/kg (oral administration) (n=9)
# The resulting data of the intravesical pressure, the voided volume, and the residual urine volume were analyzed, and the bladder capacity (mL), the residual urine volume […], and the urination efficiency (%) were determined as urination parameters in each urination. With respect to these urination parameters, the average value of two measurements was calculated and was taken as a measured value of each individual. […]
# [3] = STZ diabetes model, 3 mg/kg, vs solvent group
# [4] = STZ diabetes model, 10 mg/kg, vs solvent group
# [5] = STZ diabetes model, Group A3 and Group A10 (3 and 10 mg/kg)
# [6] = STZ diabetes model, oral 3 mg/kg
# [7] = STZ diabetes model, oral 10 mg/kg
smiles,measurement,setting,value
"CC(=O)O[C@]1(C(C)=O)C[C@@H](O)[C@H]2[C@@H]3C=C(Cl)C4=CC(=O)OC[C@]4(C)[C@H]3CC[C@@]21C [Compound A, 17α-acetoxy-6-chloro-15β-hydroxy-2-oxa-4,6-pregnadiene-3,20-dione]",bladder contraction tension caused by square-wave electrical field stimulation or Carbachol and KCl,[1],significantly strong or has a strong directionality
same,"bladder capacity, cystometry (CMG) under awake condition",[2]; [3],significantly reduced
same,"residual urine volume, cystometry (CMG) under anesthesia",[2]; [3],significantly decreased
same,"residual urine volume, cystometry (CMG) under awake condition",[2]; [3],significantly reduced
same,"urination efficiency, cystometry (CMG) under awake condition",[2]; [3],improved
same,"bladder capacity, cystometry (CMG) under awake condition",[2]; [4],significantly reduced
same,"residual urine volume, cystometry (CMG) under anesthesia",[2]; [4],significantly decreased
same,"residual urine volume, cystometry (CMG) under awake condition",[2]; [4],significantly reduced
same,"bladder capacity, cystometry (CMG) under anesthesia","[2]; STZ diabetes model, 10 mg/kg, vs solvent group (P=0.0336, Williams's multiple comparison test)",reduced
same,"urination efficiency, cystometry (CMG) under awake condition","[2]; STZ diabetes model, 10 mg/kg, vs solvent group (P=0.0359, Williams's multiple comparison test)",significantly improved
same,"action on the body weight, the blood glucose level, or the bladder and kidney weights",[2]; [5],no action or influence
same,"urination efficiency, cystometry (CMG) under anesthesia",[2]; [5],improved
same,bladder contraction force on urination by nomogram analysis,"[2]; STZ diabetes model, Group A3 and Group A10 (3 and 10 mg/kg), in comparison with the solvent group",strong bladder contraction force
same,prostate and seminal vesicle weights,"[2]; STZ diabetes model, Group A3 and Group A10 (3 and 10 mg/kg), vs solvent group",significantly decreased
same,therapeutic effect on diabetes,"[2]; STZ diabetes model, blood glucose level of Group A3 and Group A10 relative to the solvent group",no therapeutic effect
same,Bladder weight,[2]; [6],79.3 ± 17.5 mg/100 g body weight
same,Blood glucose level,[2]; [6],912.8 ± 177.3 mg/dL
same,Kidney weight,[2]; [6],1114.9 ± 189.2 mg/100 g body weight
same,"Prostate weight, dorsolateral prostate",[2]; [6],35.3 ± 7.8 mg/100 g body weight
same,"Prostate weight, ventral prostate",[2]; [6],62.2 ± 11.4 mg/100 g body weight
same,"Prostate weight, whole",[2]; [6],97.5 ± 17.7 mg/100 g body weight
same,Seminal vesicle weight,[2]; [6],44.3 ± 9.6 mg/100 g body weight
same,Dorsolateral prostate atrophy rate,[2]; [6],(44.2%)
same,Seminal vesicle atrophy rate,[2]; [6],(41.8%)
same,Ventral prostate atrophy rate,[2]; [6],(43.0%)
same,Whole prostate atrophy rate,[2]; [6],(43.4%)
same,Bladder weight,[2]; [7],72.9 ± 11.6 mg/100 g body weight
same,Blood glucose level,[2]; [7],846.7 ± 342.5 mg/dL
same,Kidney weight,[2]; [7],1171.0 ± 213.3 mg/100 g body weight
same,"Prostate weight, dorsolateral prostate",[2]; [7],28.8 ± 6.1 mg/100 g body weight
same,"Prostate weight, ventral prostate",[2]; [7],53.1 ± 13.5 mg/100 g body weight
same,"Prostate weight, whole",[2]; [7],81.9 ± 19.0 mg/100 g body weight
same,Seminal vesicle weight,[2]; [7],37.9 ± 6.4 mg/100 g body weight
same,Dorsolateral prostate atrophy rate,[2]; [7],(54.5%)
same,Seminal vesicle atrophy rate,[2]; [7],(50.2%)
same,Ventral prostate atrophy rate,[2]; [7],(51.3%)
same,Whole prostate atrophy rate,[2]; [7],(52.5%)
same,Body weight,[2]; oral 3 mg/kg once a day on weekdays 4 weeks,327.5 ± 51.3 g
same,Body weight,[2]; oral 10 mg/kg once a day on weekdays 4 weeks,356.4 ± 80.9 g
